Assay results published in patent publication US9163030B2 (priority 2012, dated 2015).
Where two headings read alike, the source gives them in different places.

Legend:
[1] = biological target: T1, KOR (Homo sapiens, UniProt P41145); experiment: [35S]GTP-γ-S binding assay, hKOR-CHO cells; format: biochemical
T1 construct: expressed in transfected cells; host or cells: CHO (hKOR-CHO)

[2] = biological target: T2, DOR (Homo sapiens, UniProt P41143); experiment: Opioid binding assay, displacement of [3H]DADLE, hDOR-CHO cell membranes; settings: for fold weaker in binding to DOR compared to 14-benzyloxy counterpart: 18a vs 17b, 18d vs 17f
T2 construct: expressed in transfected cells; host or cells: CHO (hDOR-CHO)

[3] = biological target: T3, DOR (Mus musculus, UniProt P32300); experiment: [35S]GTP-γ-S binding assay, NG108-15 cells; format: biochemical; settings: for functional activity profile at DOR: in words; for Emax: read-out: agonist activity DOR Emax; for agonist activity DOR EC50: stimulation of [35S]GTP-γ-S binding, no stim = no stimulation
T3 construct: endogenous in cells; host or cells: NG108-15 neuroblastoma x glioma cells

[4] = biological target: T4, MOR (Homo sapiens, UniProt P35372); experiment: Opioid binding assay, displacement of [3H]DAMGO, hMOR-CHO cell membranes; settings: for selectivity ratio MOR/DOR: ratio of Ki values, CHO membranes
T4 construct: expressed in transfected cells; host or cells: CHO (hMOR-CHO)

[5] = biological target: T4, MOR; experiment: [35S]GTP-γ-S binding assay, hMOR-CHO cells; format: biochemical; settings: for agonist activity MOR Emax / Emax: normalized to stimulation by DAMGO; for agonist activity MOR EC50: stimulation of [35S]GTP-γ-S binding, no stim = no stimulation; for Emax: read-out: agonist activity MOR Emax; for functional activity profile at MOR: in words
[6] = biological target: T1, KOR; experiment: biochemical; format: binding
[7] = system: mice; experiment: 55° C. warm-water tail-withdrawal test; format: in vivo, mouse; settings: for Antinociceptive A50 Values: calculated at time of peak effect; for antinociceptive effect: in words; for effect of naloxone pretreatment on antinociceptive effect: naloxone 10 mg/kg ip, -10 min, icv test compound
[8] = normalized to stimulation by standard agonist
[9] = ratio of Ki values, CHO membranes
[10] = shift in EC50 of standard agonist
[11] = stimulation of [35S]GTP-γ-S binding, no stim = no stimulation

T1 sequence (P41145 whole entry): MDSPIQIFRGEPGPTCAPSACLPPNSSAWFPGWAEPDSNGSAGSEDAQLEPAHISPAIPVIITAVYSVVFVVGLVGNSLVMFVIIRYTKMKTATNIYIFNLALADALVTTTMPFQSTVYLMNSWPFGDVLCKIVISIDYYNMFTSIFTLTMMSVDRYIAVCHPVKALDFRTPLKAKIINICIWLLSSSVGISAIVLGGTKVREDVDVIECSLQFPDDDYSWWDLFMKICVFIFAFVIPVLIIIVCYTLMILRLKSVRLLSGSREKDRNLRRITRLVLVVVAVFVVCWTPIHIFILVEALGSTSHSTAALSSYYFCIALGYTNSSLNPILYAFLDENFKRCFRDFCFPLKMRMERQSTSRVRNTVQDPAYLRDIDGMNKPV
T3 sequence (P32300 whole entry): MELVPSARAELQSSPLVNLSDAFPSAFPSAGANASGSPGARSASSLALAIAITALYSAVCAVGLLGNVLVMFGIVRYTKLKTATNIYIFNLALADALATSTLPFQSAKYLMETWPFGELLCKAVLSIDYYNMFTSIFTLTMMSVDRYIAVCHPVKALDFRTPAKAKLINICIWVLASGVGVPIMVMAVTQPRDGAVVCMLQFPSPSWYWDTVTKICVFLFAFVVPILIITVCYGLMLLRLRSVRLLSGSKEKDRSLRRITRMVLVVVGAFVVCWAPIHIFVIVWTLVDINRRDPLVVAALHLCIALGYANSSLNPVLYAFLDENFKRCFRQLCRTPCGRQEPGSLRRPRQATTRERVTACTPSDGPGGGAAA
T4 sequence (P35372 whole entry): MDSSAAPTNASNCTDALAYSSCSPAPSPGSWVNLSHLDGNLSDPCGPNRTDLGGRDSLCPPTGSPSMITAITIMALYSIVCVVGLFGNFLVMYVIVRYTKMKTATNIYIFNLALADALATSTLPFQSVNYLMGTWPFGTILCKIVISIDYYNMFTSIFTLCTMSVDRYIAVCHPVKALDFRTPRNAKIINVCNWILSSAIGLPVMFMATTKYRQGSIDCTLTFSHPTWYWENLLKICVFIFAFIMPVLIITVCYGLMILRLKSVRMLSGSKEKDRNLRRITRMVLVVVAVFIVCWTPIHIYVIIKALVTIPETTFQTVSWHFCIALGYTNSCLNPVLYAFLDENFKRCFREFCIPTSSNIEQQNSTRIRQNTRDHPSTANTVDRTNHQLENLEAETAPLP
T2 sequence (P41143 whole entry): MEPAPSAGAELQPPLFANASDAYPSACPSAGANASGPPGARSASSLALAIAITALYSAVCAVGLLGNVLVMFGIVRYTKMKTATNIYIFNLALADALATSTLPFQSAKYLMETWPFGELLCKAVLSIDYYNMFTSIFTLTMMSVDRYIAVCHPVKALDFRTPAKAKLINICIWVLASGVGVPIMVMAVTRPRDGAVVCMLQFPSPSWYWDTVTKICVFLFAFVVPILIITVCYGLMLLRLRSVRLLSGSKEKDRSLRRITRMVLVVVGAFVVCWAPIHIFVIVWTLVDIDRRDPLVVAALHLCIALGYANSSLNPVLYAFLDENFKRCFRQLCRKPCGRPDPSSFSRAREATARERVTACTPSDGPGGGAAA

SMILES | EC50 [1] [nM] | Emax [1, 8] [%] | Ki [2] [nM] | functional activity profile at DOR [3] | Ki [4] [nM] | selectivity ratio MOR/DOR [4] | EC50 [5] [nM] | melting point | selectivity ratio KOR/DOR [6, 9] | Ki ([6]; read-out: Ki ± SEM KOR) [nM] | agonist activity DOR EC50 [3] | agonist activity MOR EC50 [5] | Ki [6] [nM] | selectivity ratio KOR/DOR [6] | Emax [5] [%] | also measured
CN1CCC23c4c5ccc(O)c4OC2c2ncc(-c4ccc(Cl)cc4)cc2CC3(OC(=O)Cc2ccccc2)C1C5 (stereo not drawn) [Compound 18e, 5′-(4-Chlorophenyl)-6,7-didehydro-4,5α-epoxy-3-hydroxy-17-methyl-14-(phenylacetoxy)pyrido[2′,3′:6,7]morphinan] | 109 ± 24 | 36 ± 2 | 0.97 ± 0.04 | weak to potent partial agonist activity at DOR | 1.43 ± 0.08 | 1.5 | 87 | 194 to 196 °C | 18 | 17 ± 1 | – | – | – | – | – | Emax [3]: 27 ± 3%; agonist activity MOR Emax [5]: 122 ± 3%
Oc1ccc2c3c1OC1c4ncc(-c5ccc(Cl)cc5)cc4CC4(OCc5ccccc5)C(C2)N(CC2CC2)CCC314 (stereo not drawn) [Compound 17b, 14-(Benzyloxy)-5′-(4-chlorophenyl)-17-(cyclopropylmethyl)-6,7-didehydro-4,5α-epoxy-3-hydroxypyrido[2′,3′:6,7]morphinan] | 27 ± 9 | 15 ± 1 | 1.91 ± 0.08 | – | 8.42 ± 0.29 | 4.4 | – | 130 to 132 °C | – | – | no stim | no stim | 5.33 ± 0.27 | 2.8 | – | –
COC12Cc3cc(-c4ccc(Cl)cc4)cnc3C3Oc4c(O)ccc5c4C31CCN(C)C2C5 (stereo not drawn) [Compound 17e, 5′-(4-Chlorophenyl)-6,7-didehydro-4,5α-epoxy-3-hydroxy-14-methoxy-17-methylpyrido[2′,3′:6,7]morphinan] | 633 ± 108 | 36 ± 2 | 1.63 ± 0.08 | antagonist activity at DOR | 7.89 ± 0.33 | 4.8 | 379 | 296 to 299 °C (dec.) | 17 | 28 ± 1.59 | no stim | – | – | – | 118 ± 4 | analgesic potency, fold weaker than other tested ligands ([7]; icv): 6 fold; Antinociceptive A50 Values ([7]; icv): 1.44 nmol; antinociceptive effect ([7]; icv): full antinociceptive effects; effect of naloxone pretreatment on antinociceptive effect [7]: blocked by naloxone pretreatment
O=C(CCc1ccccc1)O[C@@]12Cc3cc(-c4ccc(Cl)cc4)cnc3[C@@H]3Oc4c(O)ccc5c4[C@@]31CCN(CC1CC1)[C@@H]2C5 [Compound 18c, 5′-(4-Chlorophenyl)-17-(cyclopropylmethyl)-6,7-didehydro-4,5α-epoxy-3-hydroxy-14-(3-phenylpropionyloxy)pyrido[2′,3′:6,7]morphinan] | – | – | – | – | – | 0.62 | – | – | 2.9 | 12 ± 13 | no stim | no stim | – | – | – | agonist activity KOR Emax [1, 8]: 25 ± 1%; antagonist activity KOR Ke [1, 10]: 14 ± 2 nM; EC50 ([1]; stimulation of [35S]GTP-γ-S binding, no stim = no stimulation, read-out: agonist activity KOR EC50): 13 ± 4 nM; Ki ([2]; read-out: Ki ± SEM DOR): 4.13 ± 0.29 nM; antagonist activity DOR Ke [3, 10]: 1.86 ± 0.21 nM; Ki ([4]; read-out: Ki ± SEM MOR): 2.58 ± 0.12 nM; antagonist activity MOR Ke [5, 10]: 13 ± 1.7 nM
COC12Cc3cc(-c4ccc(Cl)cc4)cnc3C3Oc4c(O)ccc5c4C31CCN(CC1CC1)C2C5 (stereo not drawn) [Compound 17a, 5′-(4-Chlorophenyl)-17-(cyclopropylmethyl)-6,7-didehydro-4,5α-epoxy-3-hydroxy-14-methoxypyrido[2′,3′:6,7]morphinan] | – | – | 1.95 ± 0.14 | – | 41.9 ± 2.8 | 22 | – | 170 to 173 °C | – | 5.37 ± 0.48 | no stim^b | no stim | – | 2.8 | – | –
Oc1ccc2c3c1OC1c4ncc(-c5ccc(Cl)cc5)cc4C=C4C(C2)N(CC2CC2)CCC431 (stereo not drawn) [Compound 23, 5′-(4-Chlorophenyl)-17-(cyclopropylmethyl)-3-hydroxy-6,7,8,14-tetradehydro-4,5α-epoxypyrido[2′,3′:6,7]morphinan] | – | – | 2.71 ± 0.11 | – | 13 ± 0.4 | 4.8 | – | 164 to 166 °C | – | – | no stim | no stim | 5.97 ± 0.19 | 2.2 | – | agonist activity KOR EC50 [1, 11]: no stim; functional activity profile at MOR [5]: antagonists at MOR
Oc1ccc2c3c1OC1c4ncc(-c5ccc(Cl)cc5)cc4CC4(OCC=Cc5ccccc5)C(C2)N(CC2CC2)CCC314 (stereo not drawn) [Compound 17c, 5′-(4-Chlorophenyl)-14-cinnamyloxy-17-(cyclopropylmethyl)-6,7-didehydro-4,5α-epoxy-3-hydroxypyrido[2′,3′:6,7]morphinan] | – | – | 3.74 ± 0.32 | – | 3.03 ± 0.38 | 0.81 | – | 138 to 140 °C | – | – | no stim | no stim | 3.31 ± 0.3 | 0.89 | – | –
O=C(OC12Cc3cc(-c4ccc(Cl)cc4)cnc3C3Oc4c(O)ccc5c4C31CCN(CC1CC1)C2C5)c1ccccc1 (stereo not drawn) [Compound 18a, 14-Benzoyloxy-5′-(4-chlorophenyl)-17-(cyclopropylmethyl)-6,7-didehydro-4,5α-epoxy-3-hydroxypyrido[2′,3′: 6,7]morphinan] | – | – | 87 ± 8 | – | 192 ± 21 | 2.2 | – | 158 to 162 °C | – | – | no stim | no stim | 117 ± 6 | 1.3 | – | agonist activity KOR EC50 [1, 11]: no stim; fold weaker in binding to DOR compared to 14-benzyloxy counterpart [2]: 45 fold
CN1CCC23c4c5ccc(O)c4OC2c2ncc(-c4ccc(Cl)cc4)cc2CC3(OC(=O)c2ccccc2)C1C5 (stereo not drawn) [Compound 18d, 14-Benzoyloxy-5′-(4-chlorophenyl)-6,7-didehydro-4,5α-epoxy-3-hydroxy-17-methylpyrido[2′,3′:6,7]morphinan] | – | – | 17 ± 1 | – | 84 ± 7 | 4.9 | 4620 ± 1440 | 280 to 284 °C | 6.6 | 112 ± 4 | no stim | – | – | – | 55 ± 8 | agonist activity KOR EC50 [1, 11]: no stim; fold weaker in binding to DOR compared to 14-benzyloxy counterpart [2]: 10 fold; functional activity profile at MOR [5]: weak MOR agonist potency and partial efficacy
CN1CCC23c4c5ccc(O)c4OC2c2ncc(-c4ccc(Cl)cc4)cc2CC3(OCc2ccccc2)C1C5 (stereo not drawn) [Compound 17f, 14-Benzyloxy-5′-(4-chlorophenyl)-6,7-didehydro-4,5α-epoxy-3-hydroxy-17-methylpyrido[2′,3′:6,7]morphinan] | 215 ± 54 | 32 ± 2 | 1.78 ± 0.15 | weak to potent partial agonist activity at DOR | 4.69 ± 0.17 | 2.6 | 301 | 228 to 232 °C | 28 | 49 ± 6 | – | – | – | – | 119 ± 3 | Emax [3]: 52 ± 1%
O=C(Cc1ccccc1)OC12Cc3cc(-c4ccc(Cl)cc4)cnc3C3Oc4c(O)ccc5c4C31CCN(CC1CC1)C2C5 (stereo not drawn) [Compound 18b, 5′-(4-Chlorophenyl)-17-(cyclopropylmethyl)-6,7-didehydro-4,5α-epoxy-3-hydroxy-14-(phenylacetoxy)pyrido[2′,3′:6,7]morphinan] | 26 ± 9 | 34 ± 2 | 1.33 ± 0.1 | – | 1.04 ± 0.25 | 0.78 | – | 118 to 120 °C | 2.3 | 3.1 ± 0.19 | no stim | no stim | – | – | – | –
CN1CC[C@]23c4c5ccc(O)c4O[C@H]2[C@@H](O)C=C[C@H]3[C@H]1C5 [morphine, reference compound] | – | – | – | – | – | – | – | – | – | – | – | – | – | – | – | Antinociceptive A50 Values ([7]; icv): 0.43 nmol
CN1CCC23c4c5ccc(O)c4OC2c2ncc(-c4ccc(Cl)cc4)cc2CC3(OCC=Cc2ccccc2)C1C5 (stereo not drawn) [Compound 17g, 5′-(4-Chlorophenyl)-14-cinnamyloxy-6,7-didehydro-4,5α-epoxy-3-hydroxy-17-methylpyrido[2′,3′:6,7]morphinan] | – | – | 1.14 ± 0.11 | weak to potent partial agonist activity at DOR | 0.41 ± 0.04 | 0.36 | 4.27 | – | 1.4 | 1.55 ± 0.09 | – | – | – | – | 130 ± 3 | Emax [3]: 84%; Antinociceptive A50 Values ([7]; icv): 0.23 nmol; antinociceptive effect ([7]; icv): full antinociceptive effects; effect of naloxone pretreatment on antinociceptive effect [7]: blocked by naloxone pretreatment
CN1CCC23c4c5ccc(O)c4OC2c2ncc(-c4ccc(Cl)cc4)cc2CC3(OC(=O)CCc2ccccc2)C1C5 (stereo not drawn) [Compound 18f, 5′-(4-Chlorophenyl)-6,7-didehydro-4,5α-epoxy-3-hydroxy-17-methyl-14-(3-phenylpropionyloxy)pyrido[2′,3′:6,7]morphinan] | 136 ± 60 | 16 ± 2 | 0.96 ± 0.05 | weak to potent partial agonist activity at DOR | 0.94 ± 0.05 | 0.98 | 48 | 242 to 244 °C | – | – | – | – | 4.41 ± 0.23 | 4.6 | > 100 | Emax [3]: 59 ± 2%; agonist activity MOR Emax [5]: 105 ± 2%
